Reference: BindingDB's records for PubMed 9463480 (F. Hoffmann-La Roche, 1998)
pKi: −log10 of the molar value.

What follows are compounds tested against Metabotropic glutamate receptor 2 (Homo sapiens, UniProt Q14416).
Sequence of Metabotropic glutamate receptor 2 (Q14416 whole entry): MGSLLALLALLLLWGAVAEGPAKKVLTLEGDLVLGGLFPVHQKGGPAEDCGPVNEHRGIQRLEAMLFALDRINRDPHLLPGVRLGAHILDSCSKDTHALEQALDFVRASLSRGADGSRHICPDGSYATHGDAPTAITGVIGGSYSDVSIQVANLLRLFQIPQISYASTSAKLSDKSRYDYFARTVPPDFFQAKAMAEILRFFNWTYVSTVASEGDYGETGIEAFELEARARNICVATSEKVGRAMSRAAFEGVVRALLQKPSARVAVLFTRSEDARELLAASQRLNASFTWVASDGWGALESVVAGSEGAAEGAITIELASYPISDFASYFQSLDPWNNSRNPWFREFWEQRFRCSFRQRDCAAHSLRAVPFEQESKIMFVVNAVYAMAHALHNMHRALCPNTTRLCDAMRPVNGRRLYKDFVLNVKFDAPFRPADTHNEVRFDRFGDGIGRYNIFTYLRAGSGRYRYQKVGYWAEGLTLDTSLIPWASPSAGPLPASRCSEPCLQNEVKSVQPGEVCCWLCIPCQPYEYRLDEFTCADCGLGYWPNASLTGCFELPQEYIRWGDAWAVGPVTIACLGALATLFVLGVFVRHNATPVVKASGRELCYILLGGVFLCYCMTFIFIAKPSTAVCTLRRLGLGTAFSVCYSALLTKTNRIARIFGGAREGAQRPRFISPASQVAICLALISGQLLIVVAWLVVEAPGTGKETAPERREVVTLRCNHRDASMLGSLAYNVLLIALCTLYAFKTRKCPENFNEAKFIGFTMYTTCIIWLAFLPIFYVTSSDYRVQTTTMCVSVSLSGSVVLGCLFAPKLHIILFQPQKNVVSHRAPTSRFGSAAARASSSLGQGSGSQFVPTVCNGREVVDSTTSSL

SMILES | pKi
N[C@@H](Cn1oc(=O)[nH]c1=O)C(=O)O [2-amino-3-(3,5-dioxo[1,2,4]oxadiazolidin-2-yl)propionic acid] | < 5.00
N[C@@]1(C(=O)O)CC[C@H](C(=O)O)C1 [1S, 3R-ACPD] | 5.70
N[C@@H](CCP(=O)(O)O)C(=O)O | < 5.00
N[C@H](C(=O)O)[C@H]1C[C@H]1C(=O)O [L-CCG-IV] | 7.15
N[C@H](CP(=O)(O)O)C(=O)O [CAS_23052-80-4] | < 5.00

Next, values leading:

pKi | SMILES
8.00 | NC(Cn1cnc2c(=O)[nH]c(=O)[nH]c21)(C(=O)O)C1CC1C(=O)O (centres undefined) [CAS_5311260]
< 5.00 | C[C@](N)(C(=O)O)C1C[C@@H]1C(=O)O (some centres undefined) [MCCG-I]
< 5.00 | C[C@@](N)(C(=O)O)c1ccc(C(=O)O)cc1 (racemic)
7.22 | N[C@H](C(=O)O)C1[C@@H](C(=O)O)[C@@H]1C(=O)O (some centres undefined) [DCG-IV]
